Assays:
[1] = tested on: Human umbilical vein endothelial cells (HUVEC); experiment: HUVEC growth, MTT assay; type: cell-based
Method: These initial observations were extended to human endothelial cells (FIG. 1A) where application of the high affinity agonist, Nle^1-Ang IV (Sardinia et al., 1994; Wright et al., 1999), produces a dose-dependent increase in growth. Human umbilical vein endothelial cells (HUVEC) were grown in EGM (Clonetics) and 10% calf serum for four days in the absence (control) or presence of 10^−8 M, 10^−10 M, or 10^−12 M Nle^1-Ang IV. Cell proliferation was estimated by monitoring mitochondrial activity with the redox-sensitive substrate 3-[4,5-Dimethylthiazol-2-yl]-2,5-diphenyltetrazolium bromide (MTT) (Carmicheal et al., 1987).
(§1) Most relevant for anti-angiogenic cancer treatment is the ability of AT4 antagonists to inhibit endothelial cell growth in culture. Attenuated growth has been observed with both CVECs and with HUVECs (FIG. 1B). After four days of treatment with 10^−10 M Nle^1, Leu^3-Ψ(CH2—NH2)^3-4-Ang IV (NORLEUAL), a potent AT4 receptor antagonist (Kramar et al., 2001), growth of CVECs was reduced to 25% of control (Mean±SEM; n=8; p<.001). […] Cell proliferation was again estimated using the MTT assay.

[2] = tested on: angiogenesis into subcutaneously implanted disc; experiment: In vivo disc angiogenesis assay; settings: rat, 10 micrograms of drug per disc, 10 days after implantation
Method: (§2) This prediction has been borne out in studies examining the anti-angiogenic activity of the AT4 receptor antagonist, NORLEUAL, using an ex vivo aortic ring model (FIG. 5) and an in vivo disc angiogenesis assay system in rats (FIG. 6). The data shown in FIG. 5 illustrate the dramatic ability of an AT4 receptor antagonist to inhibit neovascular growth. Rat aortic rings were incubated for 24 hours in a growth factor rich medium (EGM-2) followed by 3 days of incubation in a basal medium (control) or basal media with varying concentrations of NORLEUAL. The data shown in FIG. 5A compare an untreated control ring and a ring treated with 10^−6 M NORLEUAL. […] Disks (1 cm diameter) composed of surgical sponge sandwiched between impermeable membranes were implanted subcutaneously in the backs of rats. In the center of the disks was a pellet containing the test material. The disks were removed 10 days after implantation, paraffin sectioned, stained with Coomassie blue, and analyzed by quantitative image analysis methods to determine the vascularized area. […] Data from discs containing no drug (control), an AT4 receptor agonist (Cpnd 1), or an AT4 receptor antagonist (Cpnds 2-4). Cmpd 2 is NORLEUAL. Each disc contained 10 micrograms of drug. Data is presented as the percent of the total disc area that is vascularized (Mean±SEM; n=8).

[3] = tested on: bovine coronary venular endothelial cells (CVEC); settings: cultured CVEC (Hall et al., 1995); cited from earlier work
HUVECs = experiment: Net deposition of extracellular matrix protein, Coomassie blue stain; type: cell-based, human; settings: 10^-12 M, 3 days
Description: HUVECs and the mouse breast cancer cell line, +SA-WAZ-2T was exposed to the AT4 receptor antagonist NORLEUAL at 10^−12 M for 3 days. Cells were then stripped with 0.25% Triton X-100 and stained with Coomassie blue to visualize total ECM protein. Without an ECM platform endothelial cells fail to migrate and are unable to stabilize new blood vessels.

[4] = tested on: MDA-MB-231 human breast cancer cells; experiment: MDA-MB-231 growth, MTT assay; type: cell-based; settings: 10^-12 M, four days in culture
Description: Because of the marked effectiveness of AT4 receptor antagonists to inhibit the growth and metastasis of breast cancer in vivo, and the generally disappointing activity of anti-angiogenic molecules seen in clinical trials (Kerbel and Folkman, 2002), we decided to ascertain whether these drugs might have a direct effect on tumor cells as well as inhibiting angiogenesis. The growth of MDA-MB-23 1 cells, an aggressive estrogen-independent human cell line was inhibited by all concentrations that were examined (FIG. 10). Growth was assessed using the mitochondrial activity dye MTT after four days in culture. Growth was reduced to less than 25% of control by a concentration of NORLEUAL of 10^−12 M (Mean+/−SEM; n=6). […] The unusual reversed dose-response curve seen with the MDA-MB-231 cells may represent differential effects on multiple receptor subtypes with varied ligand affinities. […] The ability of AT4 receptor antagonists to inhibit both the angiogenic process as well as the proliferation of human cancer cells makes them unique among anti-cancer agents and provides a plausible explanation for their dramatic ability to inhibit tumor growth and metastasis.

Human dermal fibroblasts = experiment: Net deposition of extracellular matrix protein, anti-fibronectin stain; type: cell-based; settings: 10^-12 M, 3 days
Method: (§3) Human dermal fibroblasts and C6 glioma cells (astrocyte tumor) were treated with 10^−12 M NORLEUAL for 3 days. Cells were stripped with 0.25 % Triton X-100 for 10 minutes and stained with either Coomassie blue (gliomas) or anti-fibronectin (fibroblasts). Stained dots remaining after treatment are nuclei. Although the mechanism responsible for the lose of ECM proteins has yet to be fully elucidated, a contributing factor could be AT4 receptor-dependent alterations in the expression of matrix metalloproteinases. Application of AT4 receptor ligands to rabbit cardiac fibroblasts initiated marked changes in the expression of various matrix metalloproteinases (MMPs) (FIG. 3). Conditioned media from cardiac fibroblasts treated with various AT4 receptor ligands for 12 hours was loaded and run on a 10% SDS-polyacrylamide gel containing the 1% gelatin, an MMP substrate. After renaturation and activation of MMPs, the gel was incubated at 37° C. for 24 hours to allow for the degradation of gelatin at sites within the gel where MMPs reside. These sites are seen as unstained lytic bands on a background of stained and undegraded gelatin. Lane one is control media from cells with no exposure to AT4 receptor ligands. Lanes 2-4 contained media from cells treated with Nle^1-Ang IV, a putative AT4 receptor agonist, at concentrations of 1 nM, 10 nM, and 100 nM respectively. […]

Rat aortic rings = experiment: Ex vivo rat aortic ring angiogenesis assay; settings: 3 days in basal medium with varying concentrations; p<0.02 for 10^-6 M
Method: as §2

[5] = tested on: +SA-WAZ-2T mouse breast cancer cells; experiment: Primary mammary tumor growth and vascularization with slow-release pellet; type: in vivo; settings: mice
Method: To test this prediction mice were implanted with […]+SA-WAZ-2T mouse breast cancer cells (a highly aggressive and metastatic cell line) (Danielson et al., 1980) directly into the mammary gland in the presence or absence of a slow-release pellet containing the AT4 antagonist, NORLEUAL at various concentrations (FIG. 7; FIG. 14[color version]). Mouse mammary glands were injected with 5×10^5 cells. […] Tumors were removed and weighed at various time points. Data shown represents one of three experiments that yielded identical results. […] Arrows indicate large blood vessels in the control tumor. […] The highest dose examined inhibited growth more than 97%. Equally dramatic as the reduced size of the tumors was their lack of vascularization. […] Tumors were harvested after 5 weeks of drug application and stained for Factor VIII. […] The quantitative data shown in FIG. 8B indicates the number of visible blood vessels in an average high power field. Data are mean+/−SEM, n=6.

[6] = tested on: murine breast cancer cells; experiment: Lung metastasis after tail vein injection of breast cancer cells; type: in vivo, mice; settings: Elvax pellets with 0.3 mg bilaterally
Description: In addition to inhibiting primary tumor growth, AT4 receptor antagonists are also effective at preventing the growth of lung metastases (as assessed by total lung weight and the presence of metastatic tumor nodules) in mice that have had breast cancer cells injected via the tail vein (FIG. 9). In these experiments the drug was applied using Elvax slow-release pellets that were implanted into the gluteus maximus muscle coincident with the injection of tumor cells into the tail vein. Mice were injected with 5×10^5 murine breast cancer cells and bilaterally implanted with Elvax pellets containing 0.3 mg of NORLEUAL. Lungs were harvested 7 weeks after tumor cell injection and weighed. […] In order to compare just the added lung weight due to tumor infiltration, tumor burden was calculated by subtracting the mean lung weight of wild type untreated controls from the weight of lungs from experimental groups. The mean lung weight of the untreated tumor controls was normalized to 100. Typically, the lung weights of cancer injected, non-treated mice were 50% greater than non-injected controls and treated mice. Spleen weight, another indication of tumor burden, was also normal in treated mice.

C6 glioma cells = experiment: Net deposition of extracellular matrix protein, Coomassie blue stain; type: cell-based; settings: 10^-12 M, 3 days
Method: as §3

[7] = tested on: bovine coronary venular endothelial cells (CVEC); experiment: CVEC growth, MTT assay; type: cell-based; settings: 10^-10 M, four days of treatment
Description: as §1

Substance: Nle^1-Ang IV
- maximum observed increase in endothelial cell proliferation ([1]; HUVEC, four days, 10^-8, 10^-10 or 10^-12 M): 330 % of control levels
- angiogenesis, percent of total disc area vascularized [2]: trend toward enhancing angiogenesis
- rate of 3H-thymidine incorporation [3]: augment the rate of ^3H-thymidine incorporation

Substance: Nle^1, Leu^3-Ψ(CH2—NH2)^3-4-Ang IV [NORLEUAL]
- growth of HUVECs, largest decrease ([1]; 10^-6 M): 39 % control
- density of endothelial-associated ECM (HUVECs): dramatic reduction in the density of the endothelial-associated ECM
- growth of MDA-MB-231 cells [4]: less than 25 % of control
- deposited ECM (Human dermal fibroblasts): near total loss of deposited ECM
- vessel growth in aortic rings (Rat aortic rings): inhibition of vessel growth
- inhibition of primary tumor growth ([5]; highest dose examined, Elvax pellet in mammary gland): more than 97%
- tumor vascularization, Factor VIII stained sections ([5]; tumors harvested after 5 weeks of drug application): nearly avascular
- lung metastases ([6]; mice, lungs harvested at 7 weeks): no gross or microscopic indication of metastases
- spleen weight, indication of tumor burden ([6]; treated mice): normal
- deposited ECM (C6 glioma cells): near total loss of deposited ECM
- growth of CVECs [7]: 25 % of control
